{"source": "paper PMC12392461", "about": "“Beyond Estrogenicity: A Comparative Assessment of Bisphenol A and Its Alternatives in In Vitro Assays Questions Safety of Replacements” (Environmental Science & Technology, 2025)", "key": {"[1]": {"target": "T1, Peroxisome proliferator-activated receptor γ (Homo sapiens, UniProt P37231)", "T1 sequence (P37231 238-505 limits assumed)": "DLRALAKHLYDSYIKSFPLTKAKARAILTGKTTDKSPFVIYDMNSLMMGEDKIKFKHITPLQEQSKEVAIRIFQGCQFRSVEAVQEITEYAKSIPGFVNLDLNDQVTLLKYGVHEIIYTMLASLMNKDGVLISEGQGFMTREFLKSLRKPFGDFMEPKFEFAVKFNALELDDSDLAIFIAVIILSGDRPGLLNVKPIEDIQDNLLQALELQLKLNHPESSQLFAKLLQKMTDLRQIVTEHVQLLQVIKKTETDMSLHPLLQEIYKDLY", "assay": "cell-based", "details": "for EC10, PPARγ (M): 10% of maximum effect of rosiglitazone; for EC10, linear transformed / EC10, linear / logEC10: PPARγ bioassay, dosing range all; for EC10, linear: linear model; for logEC10: log-logistic model; for SR-ScorePPARγ: SR-Score, sigma k=1, x=5; for EC10, PPARγ: effect; for log(1/EC10) PPARγ: input of the ToxPi score, values up to 1.00; for Emax: read-out: Emax%PPARγ", "excerpt": "(§1) All bioassay media components and the ERα-UAS-bla GripTite and PPARγ-UAS-bla cells were obtained from Thermo Fisher Scientific (Waltham, MA, USA). AREc32 reporter gene cells based on MCF7 were provided by C. Roland Wolf (Cancer Research UK); AhR CALUX cells (H4L7.5c2 derived from H4IIe) were provided by Michael Denison (UC Davis, USA); and SH-SY5Y cells were purchased from Sigma-Aldrich.\n(§2) Cell culture conditions and bioassay protocols including response detection are provided in Text S2.1–2.4 and Table S3. − Cell viability was determined from cell confluency using an IncuCyte S3 Live-Cell Analysis System (Sartorius AG, Essen, Germany) before and after exposure, except for SH-SY5Y cells (live–dead staining with Nuclear Green LcS1 and propidium iodide, Abcam, UK). For metabolic activation experiments, cell viability was assessed using the ToxBLAzer DualScreen Kit (Thermo Fisher Scientific) to capture the remaining toxicity in ERα-UAS-bla GripTite after treatment with the aCYP catalyst (details in Text S2.4).\nFor ARE, the concentration that triggered an induction ratio of 1.5 (ECIR1.5) was used as the benchmark value, as detailed in Text S2.5. IC10 values also served as a threshold for data analysis in all assays; only concentrations below IC10 were considered when deriving EC10 or ECIR1.5.\nThe maximum efficacy (Emax%) refers to the maximum of the log–logistic concentration–response curve attained by test chemicals compared to the reference chemical’s maximum and was obtained for both ERα and PPARγ. […]\n(§3) S2: Cell culture and bioassays\n(§4) S2.1: Cell Culturing Conditions\n(§5) All suppliers and sources are given in detail in SI-Excel S3. The bioassay media for the different assays were prepared as follows: Assay medium for ER alpha-UAS-bla GripTite (ERα) and […]\n2% charcoal-stripped FBS, and 100 U/mL penicillin-streptomycin. […]\n(§6) S2.2: Cell Seeding and Incubation. For all bioassays, cell suspensions in the respective assay medium were dispensed into each well of 384-well plates using a MultiFlo Dispenser (Biotek, (now Agilent), Winooski, VT, U.S.). After seeding, the plates were incubated at 37° C and 5% CO₂ for […]. The final cell densities and plate types were as follows: Black poly-D-lysine […]\n6500 cells/well, ERα: 5000 cells/well. White 384-well plates with a clear bottom (Product No. […]\nS2.3: Chemical Dosing and Assay Analysis Procedures."}, "[2]": {"test_system": "Mitochondrial Membrane Potential", "assay": "cells", "excerpt": "as §1, §2\nFor ARE, the concentration that triggered an induction ratio of 1.5 (ECIR1.5) was used as the benchmark value, as detailed in Text S2.5. IC10 values also served as a threshold for data analysis in all assays; only concentrations below IC10 were considered when deriving EC10 or ECIR1.5. […]\nas §3, §4, §5\n2% charcoal-stripped FBS, and 100 U/mL penicillin-streptomycin. MitoOxTox and AhR assay medium was comprised of 90% DMEM with GlutaMAX, supplemented with 10% FBS, and 100 U/mL penicillin-streptomycin. […]\nas §6\n6500 cells/well, ERα: 5000 cells/well. White 384-well plates with a clear bottom (Product No.\nNYC, U.S.) for AhR: 3250 cells/well. Black Collagen I coated plates were used (Product No.\nS2.3: Chemical Dosing and Assay Analysis Procedures. The dosing procedure and high-throughput assay workflow have been described in detail before. 9 The dosing concentrations […]\nStock solutions were then either"}, "[3]": {"assay": "Acidity constant (pKa) measurement, Sirius T3 UV-metric, and speciation at pH 7.4", "details": "for Double negative form (pH = 7.40) / Negative form (pH = 7.40) / Neutral form (pH = 7.40) / αneutral % (fraction of neutral species): from experimental pKa; for αneutral % (fraction of neutral species): pH 7.4; for pKa: pKa (Acid), experimental, this study", "description": "Physicochemical properties provide input parameters for the baseline toxicity model. Acidity constants (pK a) and octanol–water partition constants of the neutral species (K ow) were measured with a Sirius T instrument from Pion Inc. (Sussex, UK) (Text S1.2 and Table S1). A detailed description of the pK a and K ow measurements can be found in literature. , […]\nS1.2: pKa and log Kow measurements […]\ntitrator (Pion Inc., Sussex, U.K.). A detailed description of the experimental procedure is available in the literature.1 In brief, each sample was prepared by mixing 5 µL of a 10 mM dimethyl sulfoxide (DMSO) stock solution with 25 µL of a phosphate buffer solution (14.4 mM […]\nA reference vial containing 5 µL of DMSO\n(Roth, A994-100 ML) and 25 µL of phosphate buffer was analyzed alongside each sample.\nThe pKa values were determined using the automated UV-metric pKa protocol within the Sirius T3 Control software (version 2.0.0.0.). Each sample was subjected to three consecutive […]\nfrom 2 to 12 by stepwise addition of 0.5 M HCl or 0.5 M potassium hydroxide while recording […]\nUV absorbance. […]\nTo ensure reproducibility, measurements were conducted on at least two"}, "[4]": {"details": "Arec32, read-out: EC10, MMP (M)"}, "[5]": {"details": "Arec32, read-out: EC10, linear transformed"}, "[6]": {"details": "phosphate buffer with […] KCl, Sirius T3 titrator"}}, "note": "Read-outs that look alike come from different tables or passages of the source.", "data": [{"smiles": "C=CCOc1ccc(S(=O)(=O)c2ccc(O)cc2)cc1", "note": "[BPS-MAE, 4-[[4-(Allyloxy)phenyl]sulfonyl]phenol]", "values": [{"measurement": "EC10, PPARγ (M)", "setting": "[1]", "value": "5.57 × 10^–7 M"}, {"measurement": "EC10, linear transformed", "setting": "[1]", "value": "5.57E-07"}, {"measurement": "EC10, linear", "setting": "[1]", "value": "6.41E-07"}, {"measurement": "logEC10", "setting": "[1]", "value": -6.25}, {"measurement": "SR-ScorePPARγ", "setting": "[1]", "value": 1.00}, {"measurement": "EC10, PPARγ", "setting": "[1]", "value": 0.557, "unit": "µM"}, {"measurement": "log(1/EC10) PPARγ", "setting": "[1]", "value": 0.88}, {"measurement": "Emax", "setting": "[1]", "value": 22, "unit": "%"}, {"measurement": "EC10", "setting": "[2]; Arec32, read-out: EC10, MMP", "value": "7.85e-05", "unit": "M"}, {"measurement": "EC10", "setting": "[2]; [4]", "value": "7.85e-05", "unit": "M"}, {"measurement": "EC10", "setting": "[2]; Arec32, read-out: EC10, linear", "value": "5.59e-05", "unit": "M"}, {"measurement": "EC10", "setting": "[2]; [5]", "value": "8.31e-05", "unit": "M"}, {"measurement": "EC10", "setting": "[2]; Arec32, read-out: logEC10", "value": "7.76e-05", "unit": "M"}]}, {"smiles": "Oc1ccc(C2(c3ccc(O)cc3)CCCCC2)cc1", "note": "[BPZ, 1,1'-Bis(4-hydroxyphenyl)cyclohexane]", "values": [{"measurement": "EC10", "setting": "[2]; Arec32, read-out: EC10, MMP", "value": "2.21e-05", "unit": "M"}, {"measurement": "EC10", "setting": "[2]; [4]", "value": "2.21e-05", "unit": "M"}, {"measurement": "EC10", "setting": "[2]; Arec32, read-out: EC10, linear", "value": "1.31e-05", "unit": "M"}, {"measurement": "EC10", "setting": "[2]; [5]", "value": "2.39e-05", "unit": "M"}, {"measurement": "EC10", "setting": "[2]; Arec32, read-out: logEC10", "value": "2.19e-05", "unit": "M"}, {"measurement": "Double negative form (pH = 7.40)", "setting": "[3]", "value": 0.00202, "unit": "%"}, {"measurement": "Negative form (pH = 7.40)", "setting": "[3]", "value": 1.11, "unit": "%"}, {"measurement": "Neutral form (pH = 7.40)", "setting": "[3]", "value": 99, "unit": "%"}, {"measurement": "αneutral % (fraction of neutral species)", "setting": "[3]", "value": 99, "unit": "%"}, {"measurement": "pKa", "setting": "[3]; second pKa column", "value": 10.1}, {"measurement": "pKa", "setting": "[3]", "value": 9.35}]}, {"smiles": "CC(C)(c1cc(Br)c(O)c(Br)c1)c1cc(Br)c(O)c(Br)c1", "note": "[TBBPA, 3,3',5,5'-Tetrabromobisphenol A]", "values": [{"measurement": "EC10", "setting": "[2]; Arec32, read-out: EC10, MMP", "value": "2.83e-05", "unit": "M"}, {"measurement": "EC10", "setting": "[2]; [4]", "value": "2.83e-05", "unit": "M"}, {"measurement": "EC10", "setting": "[2]; Arec32, read-out: EC10, linear", "value": "1.94e-05", "unit": "M"}, {"measurement": "EC10", "setting": "[2]; [5]", "value": "2.89e-05", "unit": "M"}, {"measurement": "EC10", "setting": "[2]; Arec32, read-out: logEC10", "value": "2.82e-05", "unit": "M"}, {"measurement": "Double negative form (pH = 7.40)", "setting": "[3]", "value": 56, "unit": "%"}, {"measurement": "Negative form (pH = 7.40)", "setting": "[3]", "value": 39, "unit": "%"}, {"measurement": "Neutral form (pH = 7.40)", "setting": "[3]", "value": 4.58, "unit": "%"}, {"measurement": "αneutral % (fraction of neutral species)", "setting": "[3]", "value": 5, "unit": "%"}, {"measurement": "pKa", "setting": "[3]; phosphate buffer with […] KCl, Sirius T3 titrator, second pKa column", "value": 7.24}, {"measurement": "pKa", "setting": "[3]; [6]", "value": 6.47}]}, {"smiles": "Cc1cc(Cc2cc(C)c(O)c(C)c2)cc(C)c1O", "note": "[TMBPF, Bis(3,5-dimethyl-4-hydroxyphenyl)methane]", "values": [{"measurement": "EC10, PPARγ (M)", "setting": "[1]", "value": "3.29 × 10^–7 M"}, {"measurement": "EC10, linear transformed", "setting": "[1]", "value": "3.29E-07"}, {"measurement": "EC10, linear", "setting": "[1]", "value": "5.55E-07"}, {"measurement": "logEC10", "setting": "[1]", "value": -6.48}, {"measurement": "SR-ScorePPARγ", "setting": "[1]", "value": 0.98}, {"measurement": "Specificity ratio (SRbaseline) SRPPARγ", "setting": "[1]; against baseline cytotoxicity", "value": 13.64}, {"measurement": "Specificity ratio (SRcytotoxicity) SRPPARγ", "setting": "[1]; against experimental cytotoxicity", "value": 8.97}, {"measurement": "EC10, PPARγ", "setting": "[1]", "value": 0.329, "unit": "µM"}, {"measurement": "log(1/EC10) PPARγ", "setting": "[1]", "value": 0.92}, {"measurement": "Emax", "setting": "[1]", "value": 18, "unit": "%"}, {"measurement": "EC10", "setting": "[2]; [5]", "value": "6.68e-05", "unit": "M"}, {"measurement": "EC10, linear", "setting": "[2]; MMP bioassay, dosing range all, linear model", "value": "no effect"}, {"measurement": "logEC10", "setting": "[2]; MMP bioassay, dosing range all, log-logistic model", "value": "no effect"}]}, {"smiles": "CC1(C)[C@H](O)C(C)(C)[C@H]1O", "note": "[Trans TMCD]", "values": [{"measurement": "EC10, linear", "setting": "[1]", "value": "no effect"}, {"measurement": "logEC10", "setting": "[1]", "value": "no effect"}, {"measurement": "EC10", "setting": "[2]; Arec32, read-out: EC10, linear", "value": 0.0141, "unit": "M"}, {"measurement": "EC10", "setting": "[2]; [5]", "value": 0.0185, "unit": "M"}, {"measurement": "EC10", "setting": "[2]; Arec32, read-out: logEC10", "value": 0.0186, "unit": "M"}]}, {"smiles": "CC1(C)[C@H](O)C(C)(C)[C@H]1O", "note": "[t-TMCD, trans-2,2,4,4-Tetramethyl-1,3-cyclobutanediol]", "values": [{"measurement": "EC10", "setting": "[2]; Arec32, read-out: EC10, MMP", "value": 0.0185, "unit": "M"}, {"measurement": "EC10", "setting": "[2]; [4]", "value": 0.0185, "unit": "M"}, {"measurement": "Specificity ratio (SRbaseline) SRMMP", "setting": "[2]; against baseline cytotoxicity", "value": 0.0554}, {"measurement": "Relative effect potency REPMMP", "setting": "[2]; relative to BPA", "value": 0.00152}, {"measurement": "Negative form (pH = 7.40)", "setting": "[3]", "value": "1e-6", "unit": "%"}, {"measurement": "Neutral form (pH = 7.40)", "setting": "[3]", "value": 100, "unit": "%"}, {"measurement": "αneutral % (fraction of neutral species)", "setting": "[3]", "value": 100, "unit": "%"}, {"measurement": "pKa", "setting": "[3]; [6]", "value": 15.4}]}]}
